For data set [1], the system named is MDA-MB-231 a human breast carcinoma. In words: BrdU proliferation assay, MDA-MB-231 (anti-tumor activity). It is filed as cell-based. An excerpt: (§1) Cell Culture: Human umbilical vein endothelial cells (HUVEC) were obtained from Clonetics (San Diego, Calif.), MCF7 cells were the kind gift of Dr. Dorraya El Ashry (University of Michigan), MDA-MB-231 a human breast carcinoma, PC3 a human prostate carcinoma, and U87-MG a human glioma, cell lines were obtained from ATCC. HUVEC cultures were maintained for up to 5 passages in EGM containing bovine brain extract (Clonetics) and 1× antibiotic-antimycotic (BioWhittaker, Walkersville, Md.). MDA-MB-231, PC3, U87-MG and MCF-7 cells were maintained in DMEM/F12 (1:1) containing 10% (v/v) fetal bovine serum (Hyclone Laboratories, Logan, Utah) and 1× antibiotic-antimycotic. MCF7 cells were used between passage 60 and passage 100.
(§2) Proliferation Assays: Proliferation was measured by cell counting using a Coulter Zl cell counter (Coulter Corporation, Hialeah, Fla.) or by evaluation of DNA synthesis. Each condition was done in triplicate and experiments were repeated at least twice. To determine estrogenicity of the analogs, MCF7 estrogen-dependent proliferation assays were performed. The cells were seeded in complete media at 10,000 cells/well in a 24 well plate after allowing the cells to adhere overnight and the seeding density was determined by cell counts. Cells were washed with PBS (37° C.) and starved by placing them in IMEM-phenol red free media containing 2% charcoal-dextran fetal bovine-stripped serum (Valley Biomedical, Winchester, Va.) and 1× antibiotic-antimycotic. After 3 days of starvation, cells were treated with or without increasing concentrations of compounds, replacing the media every 2-3 days and counted after 7 days of treatment. In order to ensure that only the added test compounds stimulated growth, experiments were performed only with cell cultures that duplicated less than once during the starvation period. Values are expressed as MCF7 stimulation index (SI) relative to 2ME2 (defined as 1.00). A value less than 1.00 indicates reduced estrogenicity. Estradiol is used as a positive control.
(§3) To determine anti-tumor and anti-angiogenic activities of the analogs, proliferation assays were performed by evaluating detection of DNA synthesis by use of the 5-bromo-2′-deoxyuridine (BrdU) cell proliferation colorimetric ELISA kit from Roche (Indianapolis, Ind.) according to the manufacturer's instructions. For BrdU assays, the cells were seeded at 1,000 cells/well (MDA-MB-231, anti-tumor activity) or 3,000 cells/well (HUVEC, anti-angiogenic activity) in a 96 well plate, allowed to attach overnight and then exposed to the compound for 48 h. IC50 value is the concentration at which cell proliferation is inhibited by 50%.
(§4) Antiproliferative activity of the NCEs were assessed in tumor cell lines (MDA-MB-231 a breast carcinoma, PC3 a prostate carcinoma and U87-MG a glioma) and endothelial cells (HUVEC).

In data set [2] the test system is U87-MG a human glioma. In words: Proliferation assay, U87-MG. It is filed as cell-based.
Text: as §1, §2, §3, §4

Data set [3] concerns Rat hepatocyte suspensions. In words: Hepatocyte incubations, rat. It is filed as in vitro ADME. The settings on record: rat hepatocytes, NR = no reaction. Here is the method: (§5) Hepatocyte Incubations: An in vitro measure of metabolism using cells from rat and human liver. Rat and human hepatocyte suspensions (10^6 cells per mL of serum-free (H)CL15 culture medium) were incubated with 2 concentrations (1 and 5 μM) of each of the compounds. Stock solutions were prepared in DMSO, and were further diluted in culture medium to the final test concentrations. 7-Ethoxycoumarin (7-EC) were included as a positive control substrate for P450. A 0.1 M 7-EC stock solution was prepared in DMSO, and the final assay concentration was 100 μM. The reactions were initiated by the addition of the substrates, incubated at 37° C., and terminated after 0, 60 and 120 minutes by addition of acetonitrile. The positive 7-EC control reactions were stopped with perchloric acid or ZnSO4 and BaOH after 60-minutes of incubation. The reaction mixture was centrifuged to remove the cell debris, and the supernatant was used for subsequent analysis by HPLC/LC-MS. If necessary, the supernatants were flash frozen in liquid N2 and stored at −70° C. until further analysis. HPLC was used to analyze product formation from 7-EC. Analyses to determine the concentration of the test compounds were carried out using reverse phase HPLC with tandem mass spectrometric detection (LC-MS/MS). Samples were analyzed to measure the disappearance of parent compound over time. The rate of metabolism was estimated by fitting a curve to the data for each concentration against time using GraphPad Prism Version 3.02 software.

In data set [4] the test system is MCF7 cells. In words: MCF7 estrogen-dependent proliferation assay (estrogenicity). It is filed as cell-based, human. The settings on record: stimulation index, 2ME2 defined as 1.00; less than 1.00 = reduced estrogenicity; 7 days of treatment.
Text: as §1
as §2, with “[…].” for “Values are expressed as MCF7 stimulation index (SI) relative to 2ME2 (defined as 1.00). A value less than 1.00 indicates reduced estrogenicity.”

Data set [5] deals with PC3 a human prostate carcinoma. As to the kind of experiment: Proliferation assay, PC3. It is filed as cell-based.
Text: as §1, §2, §3, §4

The test system of data set [6] is human hepatocyte suspensions. In words: Hepatocyte incubations, human. It is filed as in vitro ADME. The settings on record: human hepatocytes, NR = no reaction. Here is the method: as §5
Data set [7] concerns Human umbilical vein endothelial cells (HUVEC). In words: BrdU proliferation assay, HUVEC (anti-angiogenic activity). It is filed as cell-based.
Text: as §1, §2, §3, §4

A short description of data set [8]: Rat pharmacokinetics after oral delivery of 10 mg/kg, cyclodextrin formulation. It is filed as in vivo. The settings on record: oral 10 mg/kg, female Sprague Dawley rats. As for the experimental part: Pharmokinetics of the NCEs were assessed by LC/MS after oral delivery of 10 mg/kg to female Sprague Dawley rats using a cyclodextrin formulation.
Where [9] appears, read: Example 2, Table VII, read-out: IC50 value (μM) MDA-MB-231.
Setting [10] is: Example 2, Table VII, read-out: IC50 value (μM) U87-MG.
Where [11] appears, read: Example 2, Table VII, read-out: IC50 value (μM) PC3.
The mark [12] stands for this setting: Example 2, Table VII, read-out: IC50 value (μM) HUVEC.

SMILES strings stand for the structures. Read-outs that look alike come from different tables or passages of the source.

As a reminder, the IC50 is the midpoint of a concentration-inhibition curve. Take `COc1cc2c(cc1O)CC[C@@H]1[C@@H]2CC[C@]2(C)[C@@H](O)CC[C@@H]12` [Compound 1, 2-Methoxyestradiol, reference compound]: the IC50 was determined as 0.69 ± 0.14 µM in data set [1] (Homo sapiens, MDA-MB-231, BrdU DNA synthesis, 48 h exposure, read-out: MDA-MB-231 (IC50 μM)); 1.48 ± 0.62 µM in data set [2] (Homo sapiens, U-87 MG, proliferation, read-out: U87-MG (IC50 μM)); 1.08 ± 0.5 µM in data set [5] (Homo sapiens, proliferation, read-out: PC3 (IC50 μM)); 0.68 ± 0.15 µM in data set [7] (Homo sapiens, HUVEC, BrdU DNA synthesis, 48 h exposure, read-out: HUVEC (IC50 μM)). Besides, the “Hepatocyte Rat 60/120′ (1 uM): 60′” value in data set [3] (1 uM, 60 minutes) is listed as 0/0. For the same molecule, the “Hepatocyte Rat 60/120′ (1 uM): 120′” value in data set [3] (1 uM, 120 minutes) is 0/0. Also, in data set [3] (5 uM, 60 minutes, unit assumed), the Hepatocyte Rat 60/120′ (5 uM): 60′ came out at 39%. The Hepatocyte Rat 60/120′ (5 uM): 120′ in data set [3] (5 uM, 120 minutes, unit assumed) came out at 24%. In data set [4], the “MCF7 SI Relative to 2ME2” value was found to be 1.00. Besides, in data set [6] (1 uM, 60 minutes), the “Hepatocyte Human 60/120′ (1 uM): 60′” value is on record as 0/0. Further, the “Hepatocyte Human 60/120′ (1 uM): 120′” value in data set [6] (1 uM, 120 minutes) is 0/0. In data set [6] (5 uM, 60 minutes), the “Hepatocyte Human 60/120′ (5 uM): 60′” value came to 20. In data set [6] (5 uM, 120 minutes), the “Hepatocyte Human 60/120′ (5 uM): 120′” value is 0.

One may read the Cmax as the peak of the concentration-time curve. In general, Tmax refers to the time from dosing to the highest level. In the case of `COc1cc2c(cc1C(N)=O)CC[C@@H]1[C@@H]2CC[C@@]2(C)[C@H]1CCC21OCCO1` [ENMD-1565, 17-(1,3-dioxolane)-2-methoxyestra-1,3,5(10)-triene-3 carboxamide], the concentration for half-maximal inhibition (IC50) in data set [1] (setting [9]) came out at 1.21 ± 0.47 µM; in data set [2] (setting [10]), 1.27 ± 0.44 µM; in data set [5] (setting [11]), 1.91 ± 0.36 µM; in data set [7] (setting [12]), 0.91 µM. For the same molecule, in data set [8], the “AUCall” value was 4657 ng·h/mL. Besides, in data set [8], the “Cmax” value was determined as 1379 ng/mL. Moreover, the “Tmax” value in data set [8] turned out to be 60 min. For the same molecule, the “T½” value in data set [8] is 97.8 min.

On to `COc1cc2c(cc1C(N)=O)CC[C@@H]1[C@@H]2CC[C@]2(C)[C@@H](OC)CC[C@@H]12` [ENMD-1756, 2,17β-(bismethoxy)estra-1,3,5(10)-triene-3-carboxamide], for which the IC50 was 0.89 ± 0.21 µM in data set [1] (setting [9]), 0.71 ± 0.09 µM in data set [2] (setting [10]), 1.14 ± 0.45 µM in data set [5] (setting [11]) and 0.62 µM in data set [7] (setting [12]). Further, the “AUCall” value in data set [8] came out at 1442 ng·h/mL. Also, the highest concentration (Cmax) in data set [8] was determined as 665 ng/mL. In data set [8], the “Tmax” value amounted to 30 min. Also, in data set [8], the “T½” value stood at 53.4 min.

These data come from patent publication US20070004689A1, “Antiangiogenic agents” (priority 2004, published 2007).
